Like-named read-outs stand apart in the source and are kept apart here. Positions of bridges follow the written chain, without caps; N, C: chain ends. Residues, ends and D or L forms follow the SMILES beside them.
What was measured:
Assay in all cases: cell-based
hNav1.7 = hNav1.7 (Homo sapiens, UniProt Q15858); assay type: cell-based; conditions: IonWorks Quattro, read-out: IWQ Use Nav1.7
hNav1.3 = hNav1.3 (Homo sapiens, UniProt Q9NY46); conditions: IonWorks Quattro, read-out: IWQ Use Nav1.3
hNav1.5 = hNav1.5 (Homo sapiens, UniProt Q14524); conditions: IonWorks Quattro, read-out: IWQ Use Nav1.5
hNav1.5, sequence (Q14524 whole entry, looked up): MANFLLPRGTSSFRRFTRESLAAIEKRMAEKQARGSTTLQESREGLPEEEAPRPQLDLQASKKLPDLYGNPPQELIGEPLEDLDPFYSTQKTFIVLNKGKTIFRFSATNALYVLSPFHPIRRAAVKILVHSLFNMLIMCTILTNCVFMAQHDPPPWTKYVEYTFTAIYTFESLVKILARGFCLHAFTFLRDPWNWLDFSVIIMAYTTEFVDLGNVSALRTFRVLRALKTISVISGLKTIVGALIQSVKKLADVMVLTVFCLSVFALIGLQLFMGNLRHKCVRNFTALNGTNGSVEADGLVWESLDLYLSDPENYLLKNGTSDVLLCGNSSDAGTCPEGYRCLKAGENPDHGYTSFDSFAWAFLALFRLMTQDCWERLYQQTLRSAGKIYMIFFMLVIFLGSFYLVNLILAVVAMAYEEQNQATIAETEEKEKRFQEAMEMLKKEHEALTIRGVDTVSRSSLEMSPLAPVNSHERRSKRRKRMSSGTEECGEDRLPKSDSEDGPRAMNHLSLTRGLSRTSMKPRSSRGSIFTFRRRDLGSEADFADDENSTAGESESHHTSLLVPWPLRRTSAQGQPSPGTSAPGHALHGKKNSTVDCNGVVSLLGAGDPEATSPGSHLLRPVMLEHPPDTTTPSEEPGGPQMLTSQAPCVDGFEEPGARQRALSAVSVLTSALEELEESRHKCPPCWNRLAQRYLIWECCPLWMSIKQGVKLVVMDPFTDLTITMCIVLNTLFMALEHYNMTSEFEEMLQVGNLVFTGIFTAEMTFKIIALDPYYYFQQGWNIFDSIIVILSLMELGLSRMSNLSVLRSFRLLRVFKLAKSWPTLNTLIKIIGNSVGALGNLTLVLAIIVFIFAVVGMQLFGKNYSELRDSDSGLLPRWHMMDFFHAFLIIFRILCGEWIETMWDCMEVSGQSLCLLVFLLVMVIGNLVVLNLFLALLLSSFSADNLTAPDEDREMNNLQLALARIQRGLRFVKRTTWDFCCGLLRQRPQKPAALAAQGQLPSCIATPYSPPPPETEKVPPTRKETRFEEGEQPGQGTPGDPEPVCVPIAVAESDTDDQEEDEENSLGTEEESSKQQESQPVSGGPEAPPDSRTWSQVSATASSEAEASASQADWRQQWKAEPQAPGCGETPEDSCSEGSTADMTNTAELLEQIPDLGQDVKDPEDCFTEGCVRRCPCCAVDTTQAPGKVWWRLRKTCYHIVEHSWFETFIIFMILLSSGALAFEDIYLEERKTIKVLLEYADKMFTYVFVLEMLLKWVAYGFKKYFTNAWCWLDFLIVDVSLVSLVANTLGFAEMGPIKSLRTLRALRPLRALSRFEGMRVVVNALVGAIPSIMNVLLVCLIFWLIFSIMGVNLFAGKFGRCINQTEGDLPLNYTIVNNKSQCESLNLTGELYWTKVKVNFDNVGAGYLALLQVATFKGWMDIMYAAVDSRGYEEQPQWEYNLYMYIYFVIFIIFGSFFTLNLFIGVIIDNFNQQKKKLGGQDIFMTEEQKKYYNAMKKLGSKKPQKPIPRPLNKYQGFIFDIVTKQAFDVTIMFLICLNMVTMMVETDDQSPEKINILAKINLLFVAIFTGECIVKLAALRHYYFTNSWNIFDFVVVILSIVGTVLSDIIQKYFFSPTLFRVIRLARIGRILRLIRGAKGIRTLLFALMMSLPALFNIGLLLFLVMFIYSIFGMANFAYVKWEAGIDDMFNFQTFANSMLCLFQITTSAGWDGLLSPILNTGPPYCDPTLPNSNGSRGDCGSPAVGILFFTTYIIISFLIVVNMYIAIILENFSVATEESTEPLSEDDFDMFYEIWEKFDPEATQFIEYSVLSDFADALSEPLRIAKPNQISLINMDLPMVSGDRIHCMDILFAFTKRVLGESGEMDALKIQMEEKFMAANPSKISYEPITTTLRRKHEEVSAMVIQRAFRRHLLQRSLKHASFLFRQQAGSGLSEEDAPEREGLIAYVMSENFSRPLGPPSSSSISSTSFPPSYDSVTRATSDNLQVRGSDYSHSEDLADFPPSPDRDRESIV

hNav1.3, sequence (Q9NY46 whole entry, looked up): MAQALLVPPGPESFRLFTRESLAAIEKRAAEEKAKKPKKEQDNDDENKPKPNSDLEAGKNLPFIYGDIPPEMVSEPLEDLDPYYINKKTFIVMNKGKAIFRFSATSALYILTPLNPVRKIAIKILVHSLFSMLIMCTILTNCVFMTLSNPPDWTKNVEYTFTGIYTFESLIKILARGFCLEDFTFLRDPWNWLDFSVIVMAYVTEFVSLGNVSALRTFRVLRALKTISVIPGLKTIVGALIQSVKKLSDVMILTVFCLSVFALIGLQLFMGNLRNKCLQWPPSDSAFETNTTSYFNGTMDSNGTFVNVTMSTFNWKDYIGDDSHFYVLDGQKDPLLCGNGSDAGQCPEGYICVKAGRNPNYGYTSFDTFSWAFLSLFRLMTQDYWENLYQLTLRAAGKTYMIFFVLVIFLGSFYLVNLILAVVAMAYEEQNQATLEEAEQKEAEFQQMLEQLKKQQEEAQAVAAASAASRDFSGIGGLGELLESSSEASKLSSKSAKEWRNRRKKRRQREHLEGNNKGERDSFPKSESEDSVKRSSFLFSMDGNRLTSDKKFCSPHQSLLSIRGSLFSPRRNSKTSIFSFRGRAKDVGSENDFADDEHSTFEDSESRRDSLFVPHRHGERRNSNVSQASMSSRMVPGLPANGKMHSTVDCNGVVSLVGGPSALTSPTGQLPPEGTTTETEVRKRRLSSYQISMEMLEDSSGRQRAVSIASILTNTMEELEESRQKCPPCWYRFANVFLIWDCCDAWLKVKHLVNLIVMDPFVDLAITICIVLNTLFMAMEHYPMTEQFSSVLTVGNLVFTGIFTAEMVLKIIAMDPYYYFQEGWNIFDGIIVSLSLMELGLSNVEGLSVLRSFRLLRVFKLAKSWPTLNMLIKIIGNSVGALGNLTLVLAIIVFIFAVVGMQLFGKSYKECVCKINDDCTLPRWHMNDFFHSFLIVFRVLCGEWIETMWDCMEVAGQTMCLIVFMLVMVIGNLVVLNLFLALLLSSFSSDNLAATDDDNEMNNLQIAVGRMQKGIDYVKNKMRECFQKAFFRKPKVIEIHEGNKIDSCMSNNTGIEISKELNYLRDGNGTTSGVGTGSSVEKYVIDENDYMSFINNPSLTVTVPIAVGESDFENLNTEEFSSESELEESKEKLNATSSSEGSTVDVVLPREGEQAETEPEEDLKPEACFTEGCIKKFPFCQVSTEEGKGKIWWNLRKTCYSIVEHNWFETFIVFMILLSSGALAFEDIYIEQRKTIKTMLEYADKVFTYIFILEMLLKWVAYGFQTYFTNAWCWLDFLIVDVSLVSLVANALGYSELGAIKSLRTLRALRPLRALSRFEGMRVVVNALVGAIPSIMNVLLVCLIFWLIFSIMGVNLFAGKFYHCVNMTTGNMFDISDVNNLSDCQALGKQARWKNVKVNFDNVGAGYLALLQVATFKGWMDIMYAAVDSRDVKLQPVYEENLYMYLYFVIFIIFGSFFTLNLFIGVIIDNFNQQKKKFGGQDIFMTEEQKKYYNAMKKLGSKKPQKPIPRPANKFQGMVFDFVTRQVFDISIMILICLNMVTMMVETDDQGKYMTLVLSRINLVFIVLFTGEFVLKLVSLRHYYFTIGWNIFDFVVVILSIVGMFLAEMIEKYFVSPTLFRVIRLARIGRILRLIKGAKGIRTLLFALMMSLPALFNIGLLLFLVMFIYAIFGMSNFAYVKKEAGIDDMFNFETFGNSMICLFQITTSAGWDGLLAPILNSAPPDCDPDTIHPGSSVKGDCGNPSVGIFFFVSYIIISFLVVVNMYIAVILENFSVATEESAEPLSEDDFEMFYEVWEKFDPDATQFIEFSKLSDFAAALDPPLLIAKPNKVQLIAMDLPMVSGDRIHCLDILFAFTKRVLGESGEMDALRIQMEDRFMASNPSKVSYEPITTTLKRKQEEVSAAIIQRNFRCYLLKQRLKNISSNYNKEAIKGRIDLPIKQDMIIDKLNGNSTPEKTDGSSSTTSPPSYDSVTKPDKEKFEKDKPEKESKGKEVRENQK

SMILES: CC[C@H](C)[C@@H]1NC(=O)[C@@H]2CSSC[C@@H]3NC(=O)[C@H](C(C)C)NC(=O)[C@H](CC(C)C)NC(=O)[C@H](CC(N)=O)NC(=O)[C@@H]4CCCN4C(=O)[C@H](CCCNC(=N)N)NC(=O)[C@H](CSSC[C@H](NC(=O)[C@@H](N)CC(=O)O)C(=O)N[C@@H](CC(C)C)C(=O)NCC(=O)N[C@@H](Cc4ccccc4)C(=O)N[C@@H](CCSC)C(=O)N[C@@H](CCCNC(=N)N)C(=O)N[C@@H](CCCCN)C(=O)N2)NC(=O)[C@H](CSSC[C@@H](C(=O)N[C@@H](CCCCN)C(=O)N[C@@H](Cc2ccc(O)cc2)C(=O)N[C@H](C(=O)N[C@@H](Cc2ccccc2)C(N)=O)C(C)C)NC(=O)[C@H](Cc2c[nH]c4ccccc24)NC(=O)[C@H](CCCCN)NC(=O)[C@H](Cc2c[nH]cn2)NC(=O)[C@H]([C@@H](C)O)NC(=O)[C@H](CCCNC(=N)N)NC(=O)[C@H](CO)NC3=O)NC(=O)[C@H](CCCCN)NC(=O)[C@H](CC(=O)O)NC(=O)[C@H](CC(N)=O)NC(=O)[C@H](CO)NC(=O)[C@@H]2CCCN2C1=O [compound 91] (H-DCLGFMRKCIPSNDKCCRPNLVCSRTHKWCKYVF-NH2; disulfide 2-17, 9-23, 16-30)
- IC50 (hNav1.7; Use): 0.08 µM
- IC50 (hNav1.3; Use): 0.19 µM
- IC50 (hNav1.5; Use): 9.58 µM

SMILES: CC[C@H](C)[C@@H]1NC(=O)[C@@H]2CSSC[C@@H]3NC(=O)[C@H](C(C)C)NC(=O)[C@H](CC(C)C)NC(=O)[C@H](CC(N)=O)NC(=O)[C@@H]4CCCN4C(=O)[C@H](CCCNC(=N)N)NC(=O)[C@H](CSSC[C@H](NC(=O)[C@@H](N)CC(=O)O)C(=O)N[C@@H](CC(C)C)C(=O)NCC(=O)N[C@@H](Cc4ccccc4)C(=O)N[C@@H](CCSC)C(=O)N[C@@H](CCCNC(=N)N)C(=O)N[C@@H](CCCCN)C(=O)N2)NC(=O)[C@H](CSSC[C@@H](C(=O)N[C@@H](CCCCN)C(=O)N[C@@H](Cc2ccc(O)cc2)C(=O)N[C@H](C(=O)N[C@@H](Cc2ccccc2)C(N)=O)C(C)C)NC(=O)[C@H](Cc2c[nH]c4ccccc24)NC(=O)[C@H](CCCCN)NC(=O)[C@H](Cc2c[nH]cn2)NC(=O)[C@H]([C@@H](C)O)NC(=O)[C@H](CCCNC(=N)N)NC(=O)[C@H](CO)NC3=O)NC(=O)[C@H](CCC(N)=O)NC(=O)[C@H](CC(=O)O)NC(=O)[C@H](CC(N)=O)NC(=O)[C@H](CC(=O)O)NC(=O)[C@@H]2CCCN2C1=O [compound 92] (H-DCLGFMRKCIPDNDQCCRPNLVCSRTHKWCKYVF-NH2; disulfide 2-17, 9-23, 16-30)
- IC50 (hNav1.7; Use): 0.13 µM
- IC50 (hNav1.3; Use): 0.12 µM
- IC50 (hNav1.5; Use): 7.6 µM

SMILES: CC[C@H](C)[C@@H]1NC(=O)[C@@H]2CSSC[C@@H]3NC(=O)[C@H](C(C)C)NC(=O)[C@H](CC(C)C)NC(=O)[C@H](CC(N)=O)NC(=O)[C@@H]4CCCN4C(=O)[C@H](CCCNC(=N)N)NC(=O)[C@H](CSSC[C@H](NC(=O)[C@@H](N)CC(=O)O)C(=O)N[C@@H](CC(C)C)C(=O)NCC(=O)N[C@@H](Cc4ccccc4)C(=O)N[C@@H](CCSC)C(=O)N[C@@H](CCCNC(=N)N)C(=O)N[C@@H](CCCCN)C(=O)N2)NC(=O)[C@H](CSSC[C@@H](C(=O)N[C@@H](CCCCN)C(=O)N[C@@H](Cc2ccc(O)cc2)C(=O)N[C@H](C(=O)N[C@@H](Cc2ccccc2)C(N)=O)C(C)C)NC(=O)[C@H](Cc2c[nH]c4ccccc24)NC(=O)[C@H](CCCCN)NC(=O)[C@H]([C@@H](C)O)NC(=O)[C@H](CCCCN)NC(=O)[C@H](CCCNC(=N)N)NC(=O)[C@H](CO)NC3=O)NC(=O)[C@H](CCCCN)NC(=O)[C@H](CC(=O)O)NC(=O)[C@H](CC(N)=O)NC(=O)[C@H](CC(=O)O)NC(=O)[C@@H]2CCCN2C1=O [compound 94] (H-DCLGFMRKCIPDNDKCCRPNLVCSRKTKWCKYVF-NH2; disulfide 2-17, 9-23, 16-30)
- IC50 (hNav1.7; Table 22, use, […]): 0.1 µM
- IC50 (hNav1.3; Table 22, use, […]): 0.05 µM
- IC50 (hNav1.5; Table 22, use, […]): 9.29 µM

— patent publication US9340590B2 (priority 2011, dated 2016)
